From patent US5428038A, “Benzopyranones, a method for producing them and uses therefor” (Dr. Willmar Schwabe GmbH & Co., priority 1991, dated 1995)
Like-named read-outs stand apart in the source and are kept apart here.

Experiments:
NMDA-induced death = test: NMDA test (25 mg/kg i.v.), prevention of NMDA-induced death (neuroprotective efficacy); format: in vivo, male NMRI mice; settings: Mus musculus, po, NMDA 25 mg/kg i.v.; for ED50: 1 h, dose protecting 50% of animals against NMDA-induced death one hour after application; for responders at 25 mg/kg: 25 mg/kg p.o. 1 h before test; for responders at 25 mg/kg / responders at 50 mg/kg / responders at 20 mg/kg / responders at 100 mg/kg: read-out: Protective action (percentage of surviving animals); for responders at 50 mg/kg: 50 mg/kg p.o. 1 h before test; for responders at 20 mg/kg: 20 mg/kg p.o. 1 h before test; for responders at 100 mg/kg: 100 mg/kg p.o. 1 h before test
Experimental: (§1) In order to determine the neuroprotective and anticonvulsive activity of the compounds in accordance with the invention of the general formula I, two slightly different methods were employed as follows: […]
(§2) 1. In order to determine the neuroprotective efficacy NMDA at a rate of 25 mg/kg/10 ml was administered intravenously to male NMRI mice with a body weight of 20 to 25 g. As a consequence of this application the animals suffer clonic and partly tonic convulsions, which lead to death. As a criterion for the efficacy of the investigated compounds prevention of death is used.
(§3) All animals used in the investigations had free access to food and water prior to the experiments. The test and reference substances were all administered as a suspension in 0.2% agar or water, partly by the intermediary of solution promoters such as for instance PEG-400, perorally using an esophageal probe. Control animals received the same volumes of the solvent with optional solution promoters. One hour after the application of the substance NMDA was administered intravenously and the animals observed for the occurrence of convulsions.
In table 1 the results of the tests (NMDA 25 mg i.v.) performed in accordance with method 1 are compiled with dosages of 5-100 mg of the compounds in accordance with the invention per kg of body weight as compared with known NMDA-antagonists. As a percentage efficacy the percentage of surviving animals is used.
(§4) The determination of the ED50 values was performed in accordance with the method described in Lichtfield and Wilcoxon, J. Pharmacol. exp. Therapeut. 96, 99 (1949) in each case with 4 to 5 groups of 10 animals per dosage rate.

[1] = system: NMDA-induced tonic convulsions; test: NMDA test (40 mg/kg i.v.), protection against tonic convulsions (antiepileptic efficacy); format: in vivo, male NMRI mice; settings: Mus musculus, po; for responders at 25 mg/kg: 25 mg/kg p.o. 1 h before test; for responders at 20 mg/kg: 20 mg/kg p.o. 1 h before test
Experimental: as §1, §2
2. In order to ascertain the antiepileptic efficacy the same method was utilized with an NMDA dosage of 40 mg/kg/10 ml i.v. This higher NMDA dosage led in the case of all animals to the occurrence of tonic convulsions.
as §3
In table 2 the results of the tests (NMDA 40 mg i.v.) performed in accordance with method 2 are compiled with dosages of 5-25 mg of the compounds in accordance with the invention per kg of body weight in comparison with known anticonvulsants and antiepileptics. As a percentage efficacy the percentage of animals is used which in the test were protected against the occurrence of tonic convulsions.
as §4

[2] = system: ovalbumin-induced anaphylactic paw edema; test: Passive rat paw anaphylaxy (inhibition of edema volume; antiallergic and anti-inflammatory); format: in vivo, male Sprague-Dawley rats; settings: for inhibition in vivo at 25 mg/kg: 25 mg/kg p.o. 1 h before test, read-out: Protective action (percentage inhibition of edema volume)
Experimental: The determination of the antiallergic and anti-inflammatory properties of the compounds in accordance with the invention was using a passive rat paw anaphylaxy model.
Male Sprague-Dawley rats were utilized for all tests. The animals were kept under standardized environmental conditions with free access to food and water. For sensitization to the antigen 100 μl of a mouse antiserum to ovalbumin was injected sublplantarly into the left rear paw. […] The opposite paw was for control injected subplantarly only with 100 μl of the solvent (sterile physiological NaCl solution). Overnight the investigated animals were deprived of food but had water ad lib.
Per group in all tests between 6 and 8 animals were used. One hour later the anaphylactic reaction was caused by the intravenous injection of 10 mg/10 ml/kg ovalbumin in physiological NaCl solution. […] The edema volume was calculated from the difference between the values of the two paws. The antiallergic action is in this case expressed as a percentage inhibition of the edema volume of the animals in the test group as compared with control groups undergoing parallel investigation. […] The determination of the ED50 values was performed by linear regression after log transformation of the administered doses, at least three dosage rates being employed.

[3] = 5 mg/kg p.o. 1 h before test, NMDA 40 mg/kg i.v., read-out: Protective action (percentage of animals protected against tonic convulsions)
[4] = 50 mg/kg p.o. 1 h before test, NMDA 40 mg/kg i.v., read-out: Protective action (percentage of animals protected against tonic convulsions)
[5] = NMDA 40 mg/kg i.v., read-out: Protective action (percentage of animals protected against tonic convulsions)
[6] = 1 h, dose protecting 50% of animals against tonic convulsions one hour after application, NMDA 40 mg/kg i.v., read-out: ED50
[7] = 1 h, read-out: Protective action (percentage of animals protected against tonic convulsions)

| SMILES | ED50 (NMDA-induced death) | responders at 25 mg/kg (NMDA-induced death) | inhibition in vivo at 25 mg/kg ([2]; Rattus norvegicus, po) | also measured |
| --- | --- | --- | --- | --- |
| CCOc1cc2ccc(=O)oc2cc1OCCCN1CCN(c2ccccc2)CC1 [Example 4, 6-ethoxy-7-[3-(4-phenyl-1-piperazinyl)propoxy]-2H-1-benzopyran-2-one] | 1.7 mg/kg | 100% | 79% | responders at 5 mg/kg [1, 3]: 62.5% |
| NC(=O)N1c2ccccc2C=Cc2ccccc21 [carbamazepin] | – | – | – | responders at 50 mg/kg [1, 4]: 75% |
| COc1cc2oc(=O)ccc2cc1OCC(O)CN1CCN(c2ccccc2)CC1 (racemic) [Example 18, (±)-7-methoxy-6-[2-hydroxy-3-(4-phenyl-1-piperazinyl)propoxy]-2H-1-benzopyran-2-one] | 6.4 mg/kg | 100% | 56% | responders at 25 mg/kg [1, 5]: 100% |
| COc1cc2oc(=O)c3c(c2cc1OCCCN1CCC(c2ccccc2)CC1)CCC3 [Example 49, 2,3-dihydro-7-methoxy-8-[3-(4-phenyl-1-piperidinyl)propoxy]cyclopenta[c][1]benzopyran-4(1H)-one] | 6.8 mg/kg | 75% | 47% | ED50 [1, 6]: 4 mg/kg; responders at 20 mg/kg [1, 5]: 87.5% |
| COc1cc2oc(=O)c3c(c2cc1OCCCN1CCC(c2ccccc2)CC1)CCCC3 [Example 43, 7,8,9,10-tetrahydro-3-methoxy-2-[3-(4-phenyl-1-piperidinyl)propoxy]-6H-dibenzo[b,d]pyran-6-one] | 5.5 mg/kg | 100% | 19% | responders at 5 mg/kg [1, 3]: 37.5% |
| CCC1(c2ccccc2)C(=O)NC(=O)NC1=O [phenobarbital] | – | – | – | responders at 50 mg/kg [1, 7]: 62.5% |
| COc1cc2oc(=O)ccc2cc1OCCCN1CCN(c2cccc(C(F)(F)F)c2)CC1 [Example 6, 7-methoxy-6-{3-[4-(3-trifluoromethylphenyl)-1-piperazinyl]propoxy}-2H-1-benzopyran-2-one] | 13.5 mg/kg | 87.5% | – | responders at 25 mg/kg [1, 5]: 0% |
| COc1cc2ccc(=O)oc2cc1OCCCN1CCC(c2ccccc2)CC1 [Example 10, 6-methoxy-7-[3-(4-phenyl-1-piperidinyl)propoxy]-2H-1-benzopyran-2-one] | 23 mg/kg | 75% | 22% | responders at 5 mg/kg [1, 3]: 25% |
| COc1cc2oc(=O)c3c(c2cc1OCCCN1CCN(c2ccc(F)cc2)CC1)CCC3 [Example 52, 8-{3-[4-(4-fluorophenyl)-1-piperazinyl]propoxy}-2,3-dihydro-7-methoxy-cyclopenta[c][1]benzopyran-4(1H)-one] | 1.2 mg/kg | 100% | 74% | – |
| Fc1ccc(C(c2ccc(F)cc2)N2CCN(C/C=C/c3ccccc3)CC2)cc1 [flunarizin, reference compound] | 22.8 mg/kg | – | – | responders at 50 mg/kg (NMDA-induced death): 100%; responders at 50 mg/kg [1, 4]: 100% |
| O=C1NC(=O)C(c2ccccc2)(c2ccccc2)N1 [diphenylhydantoin] | – | – | – | responders at 50 mg/kg [1, 4]: 50% |
| COc1ccc(CCN(C)CCCC(C#N)(c2ccc(OC)c(OC)c2)C(C)C)cc1OC (centres unmarked) [verapamil, reference compound] | 17.3 mg/kg | – | – | responders at 20 mg/kg (NMDA-induced death): 87.5%; responders at 50 mg/kg [1, 7]: 50% |
| CN1C(=O)CN=C(c2ccccc2)c2cc(Cl)ccc21 [diazepam] | – | – | – | responders at 5 mg/kg [1, 7]: 25% |
| CCCC(CCC)C(=O)O [valproinic acid] | – | – | – | responders at 250 mg/kg [1, 7]: 87.5% |
| COc1ccc2c(c1)[C@]13CCCC[C@@H]1[C@H](C2)N(C)CC3 [dextromethorphan, reference compound] | 66.7 mg/kg | – | – | responders at 50 mg/kg (NMDA-induced death): 50%; ED50 ([1]; 1 h): 58 mg/kg; responders at 100 mg/kg [1, 7]: 100% |
| COc1cc2oc(=O)ccc2cc1OCC(O)CN1CCC(C(O)(c2ccc(F)cc2)c2ccc(F)cc2)CC1 (racemic) [Example 25, (±)-6-{3-[4-(bis(4-fluorophenyl)hydroxymethyl)-1-piperidinyl]-2-hydroxypropoxy}-7-methoxy-2H-1-benzopyran-2-one] | 77 mg/kg | – | 43% | responders at 100 mg/kg (NMDA-induced death): 100% |
| COc1cc2ccc(=O)oc2cc1OCC(O)CN1CCC(c2ccccc2)CC1 (racemic) [Example 23, (±)-7-[2-hydroxy-3-(4-phenyl-1-piperidinyl)-propoxy]-6-methoxy-2H-1-benzopyran-2-one] | 28.5 mg/kg | – | – | responders at 100 mg/kg (NMDA-induced death): 100%; responders at 5 mg/kg [1, 3]: 12.5% |
| COCCOC(=O)C1=C(C)NC(C)=C(C(=O)OC(C)C)C1c1cccc([N+](=O)[O-])c1 (centres unmarked) [nimodipin, reference compound] | 18.5 mg/kg | – | – | responders at 20 mg/kg (NMDA-induced death): 87.5%; ED50 [1, 6]: 25.4 mg/kg; responders at 20 mg/kg [1, 5]: 25% |
| COc1cc2oc(=O)ccc2cc1OCC(O)CN1CCN(c2cccc(Cl)c2)CC1 (racemic) [Example 19, (±)-6-{3-[4-(3-chlorophenyl)-1-piperazinyl]-2-hydroxypropoxy}-7-methoxy-2H-1-benzopyran-2-one] | 8.3 mg/kg | 100% | 32% | responders at 25 mg/kg [1, 5]: 87.5% |
| COc1cc2ccc(=O)oc2cc1OCCCN1CCC(C(O)(c2ccc(F)cc2)c2ccc(F)cc2)CC1 [Example 14, 7-{3-[4-(bis(4-fluorophenyl)hydroxymethyl)-1-piperidinyl]propoxy}-6-methoxy-2H-1-benzopyran-2-one] | – | 37.5% | 81% | Action remains for a period with full effect ([2]; 25 mg/kg p.o.): 24 h; ED50 ([2]; Rattus norvegicus, po, p.o. 1 h before test, linear regression after log transformation of doses): 2.4 mg/kg |
| COc1cc2oc(=O)cc(C)c2cc1OCCCN1CCN(c2ccccc2)CC1 [Example 26, 7-methoxy-4-methyl-6-[3-(4-phenyl-1-piperazinyl)propoxy]-2H-1-benzopyran-2-one] | – | 62.5% | 66% | – |
